Data set [1] in a line: Aqueous solubility of compound at pH 6.8. It counts as physicochemical. To be noted: buffer, time 15 min.
Data set [2] can be described thus: Permeability of the compound in human Caco-2 cells assessed as compound recovery at 10 uM measured after 2 hrs by LC/MS/MS analysis. It counts as ADME, cell-based. To be noted: read-out: Drug recovery.
Data set [3] can be described thus: Drug metabolism in human liver microsome assessed as reduction of aldehyde group at 10 mM measured after 15 mins in presence of NADPH by LC-MS analysis. To be noted: microsomes, 10000 µM. It counts as ADME.
A short description of data set [4]: Drug metabolism in rat liver microsome assessed as reduction of aldehyde group at 10 mM measured after 15 mins in presence of NADPH by LC-MS analysis. It counts as ADME. To be noted: microsomes, 10000 µM.
Data set [5] can be described thus: Half-life in C57BL/6 mouse at 1 mg/kg, iv or 3 mg/kg, po measured upto 24 hrs by LC-MS/MS analysis. To be noted: in vivo. It counts as ADME, organism-based.
Data set [6] is described as follows: Oral bioavailability in C57BL/6 mouse at 3 mg/kg measured upto 24 hrs by LC-MS/MS analysis. It counts as ADME, organism-based. To be noted: in vivo.
Data set [7] can be described thus: Plasma concentration in mouse xenografted with human RH41 cells at 30 mg/kg, po by LC-MS/MS analysis. It counts as ADME, organism-based. To be noted: in vivo.
Data set [8] is described as follows: Plasma concentration in mouse xenografted with human RH30 cells at 30 mg/kg, po by LC-MS/MS analysis. It counts as ADME, organism-based. To be noted: in vivo.
Data set [9] is described as follows: Volume of distribution at steady state in C57BL/6 mouse at 1 mg/kg, iv or 3 mg/kg, po measured upto 24 hrs by LC-MS/MS analysis. It counts as ADME, organism-based. To be noted: in vivo, read-out: Vdss.
Data set [10] in a line: Clearance in C57BL/6 mouse at 1 mg/kg, iv or 3 mg/kg, po measured upto 24 hrs by LC-MS/MS analysis. It counts as ADME, organism-based. To be noted: in vivo.
The nature of data set [11]: Half-life in Crl:CD (SD) rat at 1 mg/kg, iv or 3 mg/kg, po measured upto 24 hrs by LC-MS/MS analysis. It counts as ADME, organism-based. To be noted: in vivo.
Data set [12] can be described thus: Volume of distribution at steady state in Crl:CD (SD) rat at 1 mg/kg, iv or 3 mg/kg, po measured upto 24 hrs by LC-MS/MS analysis. It counts as ADME, organism-based. To be noted: in vivo, read-out: Vdss.
Data set [13] can be described thus: Oral bioavailability in Crl:CD (SD) rat at 3 mg/kg measured upto 24 hrs by LC-MS/MS analysis. It counts as ADME, organism-based. To be noted: Crl:CD (SD), in vivo.
Data set [14] in a line: Thermodynamic solubility of compound in phosphate buffer at pH 6.8 measured after 15 mins by shake-flask method based LC-HRMS analysis. It counts as physicochemical. To be noted: read-out: Therm_solubility.
Data set [15] can be described thus: Dose normalized AUC in Crl:CD (SD) rat at 1 mg/kg, iv measured up to 24 hrs by LC-MS/MS analysis. To be noted: in vivo. It counts as ADME, organism-based.
Data set [16] is described as follows: Clearance in Crl:CD (SD) rat at 1 mg/kg, iv or 3 mg/kg, po measured up to 24 hrs by LC-MS/MS analysis. To be noted: in vivo. It counts as ADME, organism-based.
Data set [17] can be described thus: Dose normalized AUC in Crl:CD (SD) rat at 3 mg/kg, po measured up to 24 hrs by LC-MS/MS analysis. To be noted: in vivo. It counts as ADME, organism-based.
A short description of data set [18]: Drug metabolism in human Caco-2 cells assessed as oxidation of aldehyde group at 10 uM incubated from 30 to 120 mins by LC-MS/MS analysis. It counts as ADME, cell-based. To be noted: caco-2, 10 µM, time 30-120 min.
Data set [19] is described as follows: Drug metabolism in human Caco-2 cells assessed as reduction of aldehyde group at 10 uM incubated from 30 to 120 mins by LC-MS/MS analysis. It counts as ADME, cell-based. To be noted: caco-2, 10 µM, time 30-120 min.
A short description of data set [20]: Drug metabolism in human Caco-2 cells assessed as depletion of parent compound at 10 uM measured after 1 hr by LC-MS/MS analysis. It counts as ADME, cell-based. To be noted: read-out: Drug degradation.

For the compound `COCCNc1cc(NC(=O)N2CCCc3cc(-n4cnc(C)c4)c(C=O)nc32)ncc1C#N`, the solubility at […] in data set [1] is less than 4 µM. Also, the recovery at 2 h, 10 µM in [2] was less than 10%. Besides, the Drug metabolism entry in [3] and in data set [4] was “Metabolite_Detected” in each case.
Regarding `COCCNc1cc(NC(=O)N2CCCc3cc(CO)c(C=O)nc32)ncc1C#N`, in data set [5], the half-life was 0.8 h. The compound also showed a bioavailability in [6] of 22%. The recovery at 2 h, 10 µM in data set [2] was less than 10%. Besides, the concentration in data set [7] and in [8] was less than 0.04 µM in each case. In addition, in [9], the Vd turned out to be 1.6 L/kg. Besides, the Drug metabolism result in [3] and in data set [4] was “Metabolite_Detected” in each case. The compound further had a clearance in [10] of 4.62 L/h/kg.
`COCCNc1cc(NC(=O)N2CCCc3cc(-c4cnc(C)s4)c(C=O)nc32)ncc1C#N` gave a half-life in [11] of 3.5 h. In [1], this compound registered a solubility at […] of less than 4 µM. In data set [2], the recovery at 2 h, 10 µM is less than 10%. Besides, the Vd in data set [12] was found to be 1.5 L/kg. In addition, the bioavailability in data set [13] is 46%. The solubility thermodynamic at […] in [14] was less than 6 µM. For the same compound, the Drug metabolism entry in data set [3] and in data set [4] was “Metabolite_Detected” in each case. Further, the AUC/dose was found to be 4703 nM·h in data set [15] and 2174 nM·h in [17]. Also, the clearance in [16] was determined as 0.48 L/h/kg.
On to `N#Cc1cnc(NC(=O)N2CCCc3ccc(C=O)nc32)nc1`, for which the Drug metabolism entry in data set [18], in data set [3], in [4] and in data set [19] was “Metabolite_Detected” each time. Besides, in data set [2], the recovery at 2 h, 10 µM is less than 10%. The metabolised at 1 h, 10 µM in data set [20] was found to be 80%.

(Values after ChEMBL document CHEMBL4715854, “Discovery of Roblitinib (FGF401) as a Reversible-Covalent Inhibitor of the Kinase Activity of Fibroblast Growth Factor Receptor 4” (J Med Chem, 2020).)
